pIC50: −log10 of the molar value. The source made the active and inactive calls. The rule behind the calls is not given here.
How the values were obtained:
[1] = biological target: T1, Prostaglandin G/H synthase 1 (Ovis aries) (UniProt P05979); test: Reversible binding to ram seminal vesicle COX1 at 300 uM at 600 MHz and 37 degC by saturation transfer difference 1[H]NMR spectroscopy
T1 sequence (whole entry): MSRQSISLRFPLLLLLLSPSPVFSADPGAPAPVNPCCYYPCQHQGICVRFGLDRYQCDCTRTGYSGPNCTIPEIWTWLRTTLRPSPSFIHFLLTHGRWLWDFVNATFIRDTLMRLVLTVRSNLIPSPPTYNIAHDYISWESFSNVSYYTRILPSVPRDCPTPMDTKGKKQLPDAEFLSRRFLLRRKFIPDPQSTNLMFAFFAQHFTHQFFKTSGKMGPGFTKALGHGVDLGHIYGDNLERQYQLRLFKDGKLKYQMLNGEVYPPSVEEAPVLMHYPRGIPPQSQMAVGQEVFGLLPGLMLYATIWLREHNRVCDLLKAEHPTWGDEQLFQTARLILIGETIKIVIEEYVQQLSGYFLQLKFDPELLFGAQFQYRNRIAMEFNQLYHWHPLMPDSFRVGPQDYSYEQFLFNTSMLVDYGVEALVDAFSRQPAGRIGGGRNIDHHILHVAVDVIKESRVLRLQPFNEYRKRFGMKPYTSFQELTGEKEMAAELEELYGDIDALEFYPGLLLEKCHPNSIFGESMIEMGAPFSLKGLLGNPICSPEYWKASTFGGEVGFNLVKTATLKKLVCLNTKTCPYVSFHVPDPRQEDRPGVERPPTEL

[2] = biological target: T2, Prostaglandin G/H synthase 2 (Homo sapiens, UniProt P35354); test: Instantaneous inhibition of human COX2 measured immediately after incubation of enzyme with compound
T2 sequence (P35354 whole entry): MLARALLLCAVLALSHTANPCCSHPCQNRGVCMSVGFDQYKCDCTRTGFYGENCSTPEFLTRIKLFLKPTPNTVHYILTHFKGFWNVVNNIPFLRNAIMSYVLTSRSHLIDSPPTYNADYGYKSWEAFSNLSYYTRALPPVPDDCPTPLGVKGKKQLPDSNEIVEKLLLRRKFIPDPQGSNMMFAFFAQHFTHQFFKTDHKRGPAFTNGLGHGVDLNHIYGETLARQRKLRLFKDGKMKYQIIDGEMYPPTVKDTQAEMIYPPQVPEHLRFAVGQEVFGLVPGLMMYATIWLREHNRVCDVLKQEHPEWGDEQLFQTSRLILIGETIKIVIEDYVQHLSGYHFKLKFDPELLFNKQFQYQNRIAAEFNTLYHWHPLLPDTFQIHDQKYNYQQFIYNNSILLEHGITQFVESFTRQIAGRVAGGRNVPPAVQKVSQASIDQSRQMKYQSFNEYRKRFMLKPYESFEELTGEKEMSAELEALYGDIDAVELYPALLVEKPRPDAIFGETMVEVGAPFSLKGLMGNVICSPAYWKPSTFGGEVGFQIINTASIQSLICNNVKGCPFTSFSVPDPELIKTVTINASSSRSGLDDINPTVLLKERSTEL

[3] = biological target: T2, Prostaglandin G/H synthase 2; test: Inhibition of human COX2 measured after pre-incubation of enzyme with compound

Activity [1]	pIC50 [2]	pIC50 [3]	SMILES
Active	4.22	6.92	O=C(c1ccccc1)c1ccc2n1CCC2C(=O)O (racemic) [KETOROLAC TROMETHAMINE]
Active	–	–	O=C(O)Cc1ccccc1Nc1c(Cl)cccc1Cl
Active	–	–	CC(C)Cc1ccc(C(C)C(=O)O)cc1 (stereo not given)
